Laboratory results as given in patent publication US12528767B2, “HDAC6 inhibitors and uses thereof” (Eikonizo Therapeutics, Inc., priority 2019, dated 2026).
Like-named read-outs stand apart in the source and are kept apart here.

How the values were obtained:
[1] = molecular target: T1, Full length Human HDAC6 (Homo sapiens, UniProt Q9UBN7); details: for Selectivity (6 v 8) (fold): ratio of HDAC8 IC50/HDAC6 IC50
T1 sequence (Q9UBN7 1-1215): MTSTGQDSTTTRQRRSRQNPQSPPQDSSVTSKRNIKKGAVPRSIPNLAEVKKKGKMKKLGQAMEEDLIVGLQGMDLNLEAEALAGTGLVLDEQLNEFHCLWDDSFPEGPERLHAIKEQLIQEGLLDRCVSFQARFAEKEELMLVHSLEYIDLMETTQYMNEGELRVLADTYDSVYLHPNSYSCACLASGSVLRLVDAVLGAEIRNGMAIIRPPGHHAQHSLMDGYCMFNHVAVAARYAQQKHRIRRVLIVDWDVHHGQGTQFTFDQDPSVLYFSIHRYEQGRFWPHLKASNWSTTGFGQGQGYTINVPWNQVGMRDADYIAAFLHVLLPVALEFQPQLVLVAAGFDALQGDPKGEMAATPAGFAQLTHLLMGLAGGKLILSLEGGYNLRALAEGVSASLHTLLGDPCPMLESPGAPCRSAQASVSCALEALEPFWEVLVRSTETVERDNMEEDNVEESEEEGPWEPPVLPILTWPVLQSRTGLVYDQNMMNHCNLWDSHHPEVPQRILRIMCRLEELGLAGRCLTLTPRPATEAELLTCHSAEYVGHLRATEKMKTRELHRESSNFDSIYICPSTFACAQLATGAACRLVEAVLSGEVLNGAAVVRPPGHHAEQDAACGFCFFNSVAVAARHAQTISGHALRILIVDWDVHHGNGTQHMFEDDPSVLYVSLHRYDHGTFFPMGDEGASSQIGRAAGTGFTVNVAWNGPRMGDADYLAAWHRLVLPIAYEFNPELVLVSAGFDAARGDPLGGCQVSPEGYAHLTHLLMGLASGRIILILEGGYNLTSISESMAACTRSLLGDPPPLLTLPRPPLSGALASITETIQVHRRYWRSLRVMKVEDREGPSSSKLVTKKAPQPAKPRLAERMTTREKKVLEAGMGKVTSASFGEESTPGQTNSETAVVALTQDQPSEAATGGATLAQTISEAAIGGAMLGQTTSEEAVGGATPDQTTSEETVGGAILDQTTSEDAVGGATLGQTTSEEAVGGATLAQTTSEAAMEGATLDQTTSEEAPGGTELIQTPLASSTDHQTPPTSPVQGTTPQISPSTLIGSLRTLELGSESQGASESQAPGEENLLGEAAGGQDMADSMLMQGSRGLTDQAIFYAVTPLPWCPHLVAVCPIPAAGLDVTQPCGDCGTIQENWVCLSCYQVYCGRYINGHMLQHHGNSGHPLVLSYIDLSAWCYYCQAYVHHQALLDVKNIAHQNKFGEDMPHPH

[2] = molecular target: T2, Full length Human HDAC8 (Homo sapiens, UniProt Q9BY41)
T2 sequence (Q9BY41 1-377): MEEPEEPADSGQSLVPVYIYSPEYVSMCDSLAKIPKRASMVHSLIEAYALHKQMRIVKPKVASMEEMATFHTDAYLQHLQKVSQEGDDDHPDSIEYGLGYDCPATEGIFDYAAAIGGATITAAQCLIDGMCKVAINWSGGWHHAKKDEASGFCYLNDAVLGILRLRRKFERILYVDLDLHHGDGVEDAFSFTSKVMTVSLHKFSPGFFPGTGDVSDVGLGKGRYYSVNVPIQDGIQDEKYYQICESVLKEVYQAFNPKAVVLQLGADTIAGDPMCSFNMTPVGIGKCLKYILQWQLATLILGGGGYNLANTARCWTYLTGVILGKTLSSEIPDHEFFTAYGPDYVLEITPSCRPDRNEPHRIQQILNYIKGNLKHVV

Row | SMILES | IC50 [1] | Selectivity (6 v 8) (fold) ([1]; Table 1, number) | Selectivity (6 v 8) (fold) ([1]; Table 1, range class) | IC50 [2]
1 | O=C(NO)c1cc(F)c(CN2C3CCC2COC3)cc1F [compound 50] | 1 to 100 nM | 45.5 fold | III (III: >10-100) | 1000 to 10000 nM
2 | CN1CC2CCC(C1)N2Cc1ccc(C(=O)NO)cc1F [compound 56] | 1 to 100 nM | 19 fold | III (III: >10-100) | 100 to 1000 nM
3 | O=C1CC2CCCC(C1)N2Cc1ccc(C(=O)NO)cc1F [compound 62] | 1 to 100 nM | 30.6 fold | III (III: >10-100) | 100 to 1000 nM
4 | O=C1CC2CCC(C1)N2Cc1ccc(C(=O)NO)cc1F [compound 63] | 1 to 100 nM | 42.1 fold | III (III: >10-100) | 100 to 1000 nM
5 | O=C(NO)c1ccc(CN2CCCC3(CCCCC3)C2)c(F)c1 [compound 64] | 1 to 100 nM | – | – | 1000 to 10000 nM
6 | O=C(NO)c1ccc(CN2CC3(CCOC3)C2)c(F)c1 [compound 68] | 1 to 100 nM | 27.9 fold | III (III: >10-100) | 1000 to 10000 nM
7 | O=C(NO)c1ccc(CN2CC3(CCCCC3)C2)c(F)c1 [compound 70] | 1 to 100 nM | 16 fold | III (III: >10-100) | 1000 to 10000 nM
8 | O=C(NO)c1ccc(CN2CC3(CCOCC3)C2)c(F)c1 [compound 71] | 1 to 100 nM | 33.4 fold | III (III: >10-100) | 1000 to 10000 nM
9 | O=C(NO)c1ccc(CN2CCC3(CCCC3)C2)c(F)c1 [compound 73] | 1 to 100 nM | 35.8 fold | III (III: >10-100) | 1000 to 10000 nM
10 | O=C(NO)c1ccc(CN2CCCC3(C2)C2CC4CC(C2)CC3C4)c(F)c1 (stereo not shown) [compound 77] | 1 to 100 nM | – | – | 1000 to 10000 nM
11 | O=C(NO)c1cc(F)c2c(c1)CN(CC13CC4CC(CC(C4)C1)C3)CC2 [compound 113, 2-(((3r,5r,7r)-adamantan-1-yl)methyl)-5-fluoro-N-hydroxy-1,2,3,4-tetrahydroisoquinoline-7-carboxamide] | 1 to 100 nM | – | – | 1000 to 10000 nM
12 | O=C(NO)c1cc(F)c2c(c1)CN(CC1COC1)CC2 [compound 115, 5-fluoro-N-hydroxy-2-(oxetan-3-ylmethyl)-1,2,3,4-tetrahydroisoquinoline-7-carboxamide] | 100 to 1000 nM | – | – | 1000 to 10000 nM
13 | O=C(NO)c1ccc(CN2CCC3(CC2)C2CC4CC(C2)CC3C4)c(F)c1 [compound 167, 3-fluoro-N-hydroxy-4-(((1r,3r,5r,7r)-spiro[adamantane-2,4′-piperidin]-1′-yl)methyl)benzamide] | 1 to 100 nM | 41.9 fold | III (III: >10-100) | 1000 to 10000 nM

Continued, values first:

Row | IC50 [1] | Selectivity (6 v 8) (fold) ([1]; Table 1, number) | Selectivity (6 v 8) (fold) ([1]; Table 1, range class) | IC50 [2] | SMILES
14 | 1 to 100 nM | 22.3 fold | III (III: >10-100) | 100 to 1000 nM | O=C(NO)c1ccc(CN2CCCOCC2)c(F)c1 [compound 47]
15 | 1 to 100 nM | 27.6 fold | III (III: >10-100) | 100 to 1000 nM | O=C(NO)c1ccc(CN2CCOCC2)c(F)c1 [compound 51]
16 | 1 to 100 nM | 10.7 fold | III (III: >10-100) | 100 to 1000 nM | CN1CC2CCC1CN2Cc1ccc(C(=O)NO)cc1F (stereo not shown) [compound 57]
17 | 1 to 100 nM | 20.6 fold | III (III: >10-100) | 1000 to 10000 nM | O=C(NO)c1ccc(CN2CC3(CCCC3)C2)c(F)c1 [compound 69]
18 | 1 to 100 nM | 44.8 fold | III (III: >10-100) | 100 to 1000 nM | O=C(NO)c1ccc(CN2CC3(COC3)C2)c(F)c1 [compound 72]
19 | 1 to 100 nM | 10.3 fold | III (III: >10-100) | 100 to 1000 nM | O=C(NO)c1cc(F)c2c(c1)CN(Cc1ccccc1)CC2 [compound 114, 2-benzyl-5-fluoro-N-hydroxy-1,2,3,4-tetrahydroisoquinoline-7-carboxamide]
20 | 1 to 100 nM | 7.9 fold | II (II: >1-10) | 100 to 1000 nM | CN1Cc2ccc(C(=O)NO)cc2CN1Cc1ccccc1 [compound 117, 3-benzyl-N-hydroxy-2-methyl-1,2,3,4-tetrahydrophthalazine-6-carboxamide]
21 | 1 to 100 nM | – | – | 1000 to 10000 nM | CN1Cc2cc(C(=O)NO)ccc2CN1Cc1ccccc1 [compound 118, 2-benzyl-N-hydroxy-3-methyl-1,2,3,4-tetrahydrophthalazine-6-carboxamide]
22 | 1 to 100 nM | – | – | 1000 to 10000 nM | O=C(NO)c1cc(F)c2c(c1)CCn1cccc1-2 [compound 147, 10-fluoro-N-hydroxy-5,6-dihydropyrrolo[2,1-a] isoquinoline-8-carboxamide]
23 | 1 to 100 nM | 6.1 fold | II (II: >1-10) | 100 to 1000 nM | Cc1ccn2c1-c1c(F)cc(C(=O)NO)cc1CC2 [compound 155, 10-fluoro-N-hydroxy-1-methyl-5,6-dihydropyrrolo[2,1-a] isoquinoline-8-carboxamide]
24 | 100 to 1000 nM | 2.8 fold | II (II: >1-10) | 1000 to 10000 nM | CN1Cc2cc(C(=O)NO)ccc2-c2cccn21 [compound 162, N-hydroxy-5-methyl-5,6-dihydropyrrolo[2,1-a]phthalazine-8-carboxamide]
25 | 100 to 1000 nM | 14 fold | III (III: >10-100) | 1000 to 10000 nM | O=C(NO)c1ccc2c(c1)Cn1cccc1-2 [compound 166, N-hydroxy-5H-pyrrolo[2,1-a]isoindole-7-carboxamide]
